System: Raphanus sativus
Experiment: Root growth promotion test: main root length of Raphanus sativus seedlings in seed growing bag
Type: in vivo
Conditions: compound 2 at 3 ppm, compound I at 10 ppm, mixture 3 ppm compound 2 + 10 ppm compound I; seeds on cardboard impregnated with 17 ml solution; 25° C., 7 days; average of three repeats
Procedure: One (1) part of each of the compound 2 and the compound I was dissolved in 99 parts of dimethyl sulfoxide and each of the resultant solutions was diluted with ion-exchange water so as to adjust the concentrations of the compound 2 and the compound I to 3 ppm and 10 ppm, respectively to thereby prepare respective test chemical solutions.
In the same manner, chemical solutions were prepared so as to adjust the concentrations of the compound 2 and the compound I to 6 ppm and 20 ppm, respectively, and then the respective chemical solutions were mixed in an equivalent amount to prepare a mixed test chemical solution containing 3 ppm of the compound 2 and 10 ppm of the compound I.
A cardboard in a seed growing bag (measuring 177 mm×163 mm, manufactured by Daiki Rika Kogyo Co., Ltd.) was impregnated with 17 ml of each of these test chemical solutions, and 3 seeds of Raphanus sativus were sown on the cardboard. The seed growing bag was placed in a plastic container, and the plastic container was sealed. After culturing in a bright place at 25° C. for 7 days, the length of main root was measured. For comparison, the test was conducted in the same manner without treating with the test chemical solution, and the length of the main root was measured. […]

O=C(O)CCC(=O)NCCc1ccccc1 [Compound I, 4-oxo-4-[(2-phenylethyl)amino]-butyric acid]
Relative value (main root length, non-treated control group as 100): 148

From US20120135863A1, “COMPOSITION AND METHOD FOR PROMOTING PLANT ROOT GROWTH” (priority 2009, published 2012)
